Experimental data taken from paper PMC8220418, “A fragment-based approach to assess the ligandability of ArgB, ArgC, ArgD and ArgF in the L-arginine biosynthetic pathway of Mycobacterium tuberculosis” (Computational and Structural Biotechnology Journal, 2021).
Values after ≈ are worked out from the molar mass of the structure shown. Read-outs that look alike come from different tables or passages of the source.

Key:
[1] = biological target: T1, ArgB (Mycobacterium tuberculosis, UniProt P9WQ01); experiment: Differential scanning fluorimetry (DSF) fragment screening against ArgB; assay type: binding; settings: known ligands (positive controls); 1 mM for ATP, N-acetyl-glutamate, L-arginine
Protocol: (§1) Fragment screening was carried out in a 96-well PCR plate using a CFX Connect Real-time PCR Detection System (Bio-Rad) for DSF. For ArgB, each 25 μL reaction mixture contained 10 µM ArgB, 100 mM HEPES (pH 7.5), 200 mM NaCl, 5x SYPRO Orange, 5% DMSO (v/v), and fragments at 5 mM. For ArgF each 25 μL reaction mixture contained 5 µM ArgF, 25 mM Tris-HCl (pH 8.0), 150 mM NaCl, 5x SYPRO Orange dye, 5 mM fragments and 5% DMSO (v/v). For ArgC and ArgD, the 25 μL reaction volume consisted of the following: 2.5 μM ArgC/5 μM ArgD, 100 mM sodium phosphate pH 7, 200 mM NaCl, 5x SYPRO Orange, and 5 mM fragments (960 fragment library). The protocol implemented increased temperature by 0.5 °C after every 30 s, going from 25 °C to 95 °C and measuring SYPRO Orange fluorescence for each temperature cycle. The melt curve RFU (relative fluorescence units) and derivative -d(RFU)/dT values were analysed and plotted using a macros-enabled Excel Workbook: the minima of the melt curves were recorded as the melting temperature (Tm) of the enzymes in the presence of each fragment. The Tm of the reference control (protein in the presence of DMSO) was subtracted from all the readings to calculate ΔTm.

[2] = biological target: T1, ArgB; experiment: ArgB enzymatic assay (ADP release coupled to NADH oxidation, pyruvate kinase/lactate dehydrogenase); assay type: biochemical; settings: IC50, 0.5 µM ArgB, 0.3 mM ATP, 1.25 mM NAG, 10% DMSO
Protocol: ArgB activity was assessed by a colorimetric assay that followed the release of ADP by measuring the oxidation of NADH at 340 nm, for 30 min, in the presence of pyruvate kinase and lactate dehydrogenase in a PHERAstar plate-reader (BMG-Labtech). […]. Inhibitors were also individually screened against the coupled enzymes to eliminate any compounds interfering with the other assay components. Competition assays were performed in the same conditions using 0.3 mM of ATP or NAG and varying the other substrate concentration.

[3] = biological target: T1, ArgB; experiment: biochemical; assay type: binding; settings: ITC Kd, six-site sequential binding model, 25 °C, sequential binding, six-site model
[4] = test system: M. tuberculosis H37Rv; experiment: microbe, parasite or virus in culture; assay type: cell-based, Mycobacterium tuberculosis
[5] = test system: M. tuberculosis ΔargB-c; experiment: microbe, parasite or virus in culture; assay type: cell-based, Mycobacterium tuberculosis
[6] = test system: M. tuberculosis MDR strain V2475; experiment: microbe, parasite or virus in culture; assay type: cell-based, Mycobacterium tuberculosis; settings: Mycobacterium tuberculosis
[7] = biological target: T2, ArgC (Mycobacterium tuberculosis, UniProt P9WPZ9); experiment: Surface plasmon resonance with immobilised ArgC; assay type: binding
Protocol: Low molecular weight (LMW) screening with the DSF fragment hits was carried out using the T200 Biacore instrument (GE Healthcare Life Sciences). A series S CM5 sensor chip (GE Healthcare Life Sciences) was used for the immobilisation of ArgC on the carboxymethylated dextran matrix through amine coupling. A 25 μg/mL ArgC dilution was prepared in the optimal coupling buffer (sodium acetate pH 5), and immobilisation was performed by manual instructions. The immobilised ArgC was tested using dilution series (19 μM to 2.5 mM) of NADP^+ and NADPH. 50 mM fragment DMSO stocks were used to prepare 1 mM dilutions in the SPR buffer consisting of 10 mM sodium phosphate pH 7.0, 150 mM NaCl and 2% DMSO (v/v). Each NADP^+/NADPH and fragment dilution was injected once at a flow rate of 30 μL/min for a contact time of 30 s, SPR Running buffer (10 mM sodium phosphate pH 7.0 and 150 mM NaCl) was passed for 320 s at the same flow rate, and 50% DMSO v/v (diluted in SPR running buffer) was injected at the end of the cycle to remove undissociated analyte. Solvent correction was carried out to account for DMSO mismatch between the analyte dilutions and the SPR running buffer.
The fragment hits obtained previously were injected at a concentration of 1 mM. The sensorgrams for all the analytes were inspected visually to exclude fragments with either no discernible response or a “sticky” profile from further analysis (representative sensorgrams for fragment binders are shown in Fig. S2a and b). The binding level was calculated using the T200 software and adjusted for molecular weights of the analytes (Fig. S2c and d). For ArgC, 22 fragments with a binding level response ≥20 RU were shortlisted, whereas in the case of ArgD, 20 fragments with a response ≥10 RU were shortlisted for crystallographic validation. Fragments were thereafter described either as SPR ‘positive’ or ‘negative’.

[8] = biological target: T2, ArgC; experiment: Differential scanning fluorimetry (DSF) fragment screening against ArgC; assay type: binding; settings: for DSF ΔTm: 1 mM co-factor, average across all DSF runs; for ΔTm at 5000 µM: fragments at 5 mM, 2.5 μM ArgC
Protocol: as §1

[9] = biological target: T2, ArgC; experiment: X-ray crystallography of ArgC soaked with fragments (binding site); settings: crystal soaking
Protocol: ArgC crystals grown in pH 5.5 were first soaked in 1.5 µL drops containing the mother liquor and 5 mM NADP^+ for 2 h in hanging drops that were equilibrated against a reservoir of 500 µL. Thereafter, the crystals were transferred to drops containing the crystallisation condition and an SPR-validated fragments (20 mM, 10% DMSO), which were equilibrated against 500 µL of mother liquor also containing a corresponding percentage of DMSO overnight at 19 °C. ArgC crystals grown in pH 7 were soaked with 5 mM NADP^+ only for 5–10 min due to the rapid development of cracks, and transferred to the fragment soaking drops for 5–10 min from where they were fished and frozen.
X-ray diffraction data (single-wavelength anomalous diffraction) were collected on beamlines i02, i03, i04, i04-1 and i24 at the Diamond Light Source (DLS), UK and on id30B at The European Synchrotron Radiation Facility (ESRF). Diffraction data were processed and reduced with autoPROC from Global Phasing Limited or Xia2 [31]. The apo-form of ArgB was crystallised in the R3_2 space group with one protomer per asymmetric unit (ASU) and the ArgB:NAG complex in the P6_3 space group with two protomers per ASU. ArgF was crystallized in the P2_1 space group with 6 protomers in the ASU. ArgC was crystallised in C2 and P2_1 space groups, with 2 and 4/8 protomers per ASU respectively. ArgD was crystallised in the P2_1 space group as well but with 4 protomers in the ASU.
Initial phases were determined with PHASER [32] from PHENIX software package using the M. tuberculosis ArgB structure (PDB: 2AP9), M. tuberculosis ArgF structure (PDB: 2P2G), M. tuberculosis ArgC structure (PDB: 2I3G) and E. coli Succinyl-ornithine transaminase (AstC, 42% sequence identity, PDB: 4ADB) as a search models, respectively for ArgB, ArgF, ArgC and ArgD. Model building was done with Coot, and refinement was performed in PHENIX [33], [35] for ArgB, ArgF, and ArgC. For ArgD, after the initial molecular replacement solution and a single cycle of refinement, PHENIX AutoBuild was used to generate a model for M. tuberculosis ArgD that was then refined with Coot and PHENIX. Structure validation was performed using Coot and PHENIX tools, [34]. All figures were prepared with PyMOL (The PyMOL Molecular Graphics System, Version 2.0 Schrodinger, LLC).

[10] = biological target: T2, ArgC; experiment: ArgC enzymatic assay (NADPH oxidation at 340 nm); assay type: biochemical; settings: 2 mM fragment, 3.5 μM ArgC, 2.5% DMSO
Protocol: To synthesise the ArgC substrate, a reaction mixture containing 3 μM ArgB, 1 mM NAG and 1 mM ATP in 50 mM Tris-HCl pH 7.5, 100 mM NaCl and 40 mM MgCl2 was made and the reaction was allowed to proceed for 1–1.5 h at room temperature. Thereafter, 100 μL of the ArgC reaction mixture consisting of 50 mM Tris-HCl pH 7.5, 100 mM NaCl and 0.6 mM NADPH (concentration in 200 μL), was added to each well together with 100 μL of the ArgB reaction mixture and followed for 30 min at 35 °C by measuring the oxidation of NADPH at 340 nm. Controls with only NADPH, 2.5% DMSO (v/v) and no ArgC, as well as only NADPH, 4 mM fragment and no ArgC were prepared. Baseline ArgC activity was assayed with and without DMSO, the effect of 2.5% and 5% DMSO on enzymatic activity was also tested. […] All conditions were prepared in triplicates. 3.5 μM ArgC was added just before measurements were started.

[11] = biological target: ArgD (Mycobacterium tuberculosis, UniProt P9WPZ7); experiment: Differential scanning fluorimetry (DSF) against ArgD; assay type: binding
[12] = fragments at 1 mM, adjusted for molecular weight

Chain of ArgD (P9WPZ7 whole entry, the tested form may be a part): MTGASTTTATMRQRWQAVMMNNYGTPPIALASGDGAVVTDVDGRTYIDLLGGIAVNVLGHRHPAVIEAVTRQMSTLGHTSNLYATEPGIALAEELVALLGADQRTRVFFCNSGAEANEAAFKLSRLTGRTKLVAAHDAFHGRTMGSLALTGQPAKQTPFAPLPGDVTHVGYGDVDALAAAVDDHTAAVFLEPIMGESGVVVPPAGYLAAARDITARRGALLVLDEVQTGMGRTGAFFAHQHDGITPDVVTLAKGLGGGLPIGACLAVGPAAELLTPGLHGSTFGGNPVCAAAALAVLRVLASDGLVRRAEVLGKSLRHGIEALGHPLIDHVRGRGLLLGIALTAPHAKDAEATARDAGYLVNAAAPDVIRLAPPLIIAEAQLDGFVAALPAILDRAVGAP
T2 sequence (P9WPZ9 whole entry, the tested form may be a part): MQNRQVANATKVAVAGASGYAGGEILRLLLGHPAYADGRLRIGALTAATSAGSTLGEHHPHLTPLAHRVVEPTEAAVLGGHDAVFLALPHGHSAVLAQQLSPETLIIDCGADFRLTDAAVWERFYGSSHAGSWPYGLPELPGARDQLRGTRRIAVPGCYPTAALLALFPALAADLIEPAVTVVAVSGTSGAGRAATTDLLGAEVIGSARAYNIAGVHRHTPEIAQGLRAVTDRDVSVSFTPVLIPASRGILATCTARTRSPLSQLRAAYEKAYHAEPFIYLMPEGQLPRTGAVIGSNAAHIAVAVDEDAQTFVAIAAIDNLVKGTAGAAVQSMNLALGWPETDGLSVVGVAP

Nc1ncnc2c1ncn2[C@@H]1O[C@H](COP(=O)(O)OP(=O)(O)OP(=O)(O)O)[C@@H](O)[C@H]1O [ATP]
DSF ΔTm [1]: +2.0 °C

N=C(N)NCCC[C@H](N)C(=O)O [L-arginine]
IC50 [2]: 146 ± 1 µM | Kd ([3]; 1st value): 4.5 µM | Kd ([3]; 2nd value): 4.8 µM | Kd ([3]; 3rd value): 6.1 µM | Kd ([3]; 4th value): 9.4 µM | Kd ([3]; 5th value): 12.9 µM | Kd ([3]; 6th value): 42 µM | ΔTm at 1000 µM [1]: 11.8 °C

NC(N)=NOCC[C@H](N)C(=O)O [L-canavanine, reference compound]
IC50 [2]: 1460 ± 2 µM | Kd ([3]; 1st value): 4.5 µM | Kd ([3]; 2nd value): 4.8 µM | Kd ([3]; 3rd value): 6.4 µM | Kd ([3]; 4th value): 34 µM | Kd ([3]; 5th value): 35 µM | Kd ([3]; 6th value): 137 µM | MIC ([4]; Mycobacterium tuberculosis, media without arginine): 50 µg/mL (≈ 284 µM) | Inhibitory activity on growth with arginine present ([4]; arginine (1 mM) in the media): no inhibitory activity | ΔTm at 1000 µM [1]: 7.2 °C | Inhibitory activity on growth with arginine present [5]: no inhibitory activity | MIC ([5]; Mycobacterium tuberculosis): 50 µg/mL (≈ 284 µM) | MIC [6]: > 200 µg/mL

NC(=O)c1ccc[n+]([C@@H]2O[C@H](COP(=O)([O-])OP(=O)(O)OC[C@H]3O[C@@H](n4cnc5c(N)ncnc54)[C@H](OP(=O)(O)O)[C@@H]3O)[C@@H](O)[C@H]2O)c1 [NADP, reference compound]
SPR Binding Response ([7]; 1.25 mM): 19.5 (1.25 mM) RU | DSF ΔTm [8]: +0.6 °C | DSF ΔTm ([8]; listed as NADP^+): ~ 0.6 °C | Binding site (X-ray) [9]: Co-factor

NC(=O)C1=CN([C@@H]2O[C@H](COP(=O)(O)OP(=O)(O)OC[C@H]3O[C@@H](n4cnc5c(N)ncnc54)[C@H](OP(=O)(O)O)[C@@H]3O)[C@@H](O)[C@H]2O)C=CC1 [NADPH, reference compound]
SPR Binding Response ([7]; 1.25 mM): 16.3 (1.25 mM) RU | DSF ΔTm [8]: −0.9 °C | Binding site (X-ray) [9]: Co-factor

CC(=O)N[C@@H](CCC(=O)O)C(=O)O [NAG, N-acetyl-L-glutamic acid]
ΔTm at 1000 µM [1]: 8.6 °C

COc1ccc2[nH]cc(CC(=O)O)c2c1 [NMR322, 5-Methoxy-3-indoleacetic acid]
inhibition at 2000 µM [10]: 45% | SPR Binding Response [7, 12]: 80.5 RU | ΔTm at 5000 µM [8]: 3.1 °C | Binding site (X-ray) [9]: Substrate

Nc1ccc(Oc2ccccc2)nc1 [NMR401, 6-phenoxy-3-pyridinamine]
inhibition at 2000 µM [10]: 10% | SPR Binding Response [7, 12]: 36.7 RU | ΔTm at 5000 µM [8]: 4.8 °C | Binding site (X-ray) [9]: Co-factor

O=C(O)C1c2ccccc2Oc2ccccc21 [NMR571, Xanthene-9-carboxylic acid]
inhibition at 2000 µM [10]: 37% | SPR Binding Response [7, 12]: 78.0 RU | ΔTm at 5000 µM [8]: 3.1 °C | Binding site (X-ray) [9]: Substrate

COc1ccc2oc(C(=O)O)nc2c1 [NMR863, 5-methoxy-1,3-benzoxazole-2-carboxylic acid]
inhibition at 2000 µM [10]: 12% | SPR Binding Response [7, 12]: 41.6 RU | ΔTm at 5000 µM [8]: 5 °C | Binding site (X-ray) [9]: Co-factor

Cc1ncc(COP(=O)(O)O)c(C=O)c1O [PLP, pyridoxal-5′-phosphate]
Melting temperature of ArgD after addition of PLP [11]: 79 °C | ΔTm at 1000 µM ([11]; PLP (1 mM), PLP-unsaturated ArgD): 13 °C | Melting temperature of ArgD after addition of PLP ([11]; PLP-unsaturated ArgD + 1 mM PLP): 77.5 °C
